Test results taken from PubChem BioAssay AID248 (DTP/NCI, 2004).
Several values for one entry are separate records, joined by “and”; a condition that tells them apart may be missing. Equal values may be shown once. Inconclusive results and toxic doses are left out. No stated cut-off is given here; in the data, active means T/C of 150% or more; inactive means T/C below 125%.

Tested on: L1210 leukemia ip in BDF1 mice, survival T/C
Assay: NCI In Vivo Anticancer Drug Screen. Data for tumor model L1210 Leukemia (intraperitoneal) in B6D2F1 (BDF1) mice
Conditions: endpoint: mean survival time, higher = longer survival
Procedure, shortened: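 Read-out is survival time, reported as the treated-group measurement over the vehicle-control measurement.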

[1] = dose: 25.0 mg/kg/injection, schedule: Q01DX009 (ip), vehicle: saline with Tween-80
[2] = dose: 50.0 mg/kg/injection, schedule: Q01DX009 (ip), vehicle: saline with Tween-80
[3] = dose: 100.0 mg/kg/injection, schedule: Q01DX009 (ip), vehicle: Klucel (hydroxypropylcellulose) (HPC)
[4] = dose: 100.0 mg/kg/injection, schedule: Q01DX009 (ip), vehicle: saline with Tween-80
[5] = dose: 100.0 mg/kg/injection, schedule: Q04DX003 (ip), vehicle: Klucel (hydroxypropylcellulose) (HPC)
[6] = dose: 100.0 mg/kg/injection, schedule: Q04DX003 (ip), vehicle: saline with Tween-80
[7] = dose: 200.0 mg/kg/injection, schedule: Q01DX009 (ip), vehicle: Klucel (hydroxypropylcellulose) (HPC)
[8] = dose: 200.0 mg/kg/injection, schedule: Q04DX003 (ip), vehicle: Klucel (hydroxypropylcellulose) (HPC)
[9] = dose: 400.0 mg/kg/injection, schedule: Q01DX009 (ip), vehicle: Klucel (hydroxypropylcellulose) (HPC)
[10] = dose: 400.0 mg/kg/injection, schedule: Q04DX003 (ip), vehicle: Klucel (hydroxypropylcellulose) (HPC)
[11] = dose: 100.0 mg/kg/injection, schedule: Q01DX009 (ip), vehicle: saline
[12] = dose: 100.0 mg/kg/injection, schedule: Q01DX001 (ip), vehicle: Klucel (hydroxypropylcellulose) (HPC)
[13] = dose: 200.0 mg/kg/injection, schedule: Q01DX001 (ip), vehicle: Klucel (hydroxypropylcellulose) (HPC)
[14] = dose: 400.0 mg/kg/injection, schedule: Q01DX001 (ip), vehicle: Klucel (hydroxypropylcellulose) (HPC)
[15] = dose: 200.0 mg/kg/injection, schedule: Q01DX009 (ip), vehicle: saline with Tween-80
[16] = dose: 200.0 mg/kg/injection, schedule: Q04DX003 (ip), vehicle: saline with Tween-80
[17] = dose: 400.0 mg/kg/injection, schedule: Q01DX009 (ip), vehicle: saline with Tween-80
[18] = dose: 400.0 mg/kg/injection, schedule: Q04DX003 (ip), vehicle: saline with Tween-80
[19] = dose: 100.0 mg/kg/injection, schedule: Q04DX003 (ip), vehicle: saline
[20] = dose: 200.0 mg/kg/injection, schedule: Q04DX003 (ip), vehicle: saline
[21] = dose: 400.0 mg/kg/injection, schedule: Q04DX003 (ip), vehicle: saline
[22] = dose: 100.0 mg/kg/injection, schedule: Q01DX001 (ip), vehicle: saline
[23] = dose: 200.0 mg/kg/injection, schedule: Q01DX001 (ip), vehicle: saline
[24] = dose: 400.0 mg/kg/injection, schedule: Q01DX001 (ip), vehicle: saline
[25] = dose: 100.0 mg/kg/injection, schedule: Q01DX001 (ip), vehicle: carboxymethylcellulose (CMC)
[26] = dose: 200.0 mg/kg/injection, schedule: Q01DX001 (ip), vehicle: carboxymethylcellulose (CMC)
[27] = dose: 400.0 mg/kg/injection, schedule: Q01DX001 (ip), vehicle: carboxymethylcellulose (CMC)

Measured: T/C

O=S(=O)(O)c1ccc(N=Nc2ccc(O)cc2)cc1
inactive: [1] 104 % of control | [2] 102 % of control | [3] 88 % of control | [4] 101 % of control | [5] 92 % of control and 98 % of control | [6] 107 % of control | [7] 88 % of control | [8] 92 % of control and 102 % of control | [9] 90 % of control | [10] 97 % of control

CCC(C)C(CCN(C)CC)(CNC(=O)CN(CC)CC)c1cccc2ccccc12 (stereo not drawn)
inactive: dose: 50.0 mg/kg/injection, schedule: Q04DX002 (ip), vehicle: saline 106 % of control | [11] 96 % of control | dose: 100.0 mg/kg/injection, schedule: Q04DX002 (ip), vehicle: saline 97 % of control

CC(C)(C)N1C(C(=O)c2ccccc2)C1C(=O)c1ccccc1 (stereo not drawn)
inactive: [12] 97 % of control | [13] 95 % of control | [14] 89 % of control

Nc1ccc(NS(=O)(=O)CS(=O)(=O)Nc2ccc(N)cc2)cc1
inactive: dose: 10.0 mg/kg/injection, schedule: Q01DX001 (ip), vehicle: saline 96 % of control | dose: 20.0 mg/kg/injection, schedule: Q01DX001 (ip), vehicle: saline 101 % of control | dose: 40.0 mg/kg/injection, schedule: Q01DX001 (ip), vehicle: saline 101 % of control

NC(=S)C(=S)NCCO
inactive: [4] 103 % of control | [6] 100 % of control | [15] 94 % of control | [16] 93 % of control | [17] 100 % of control | [18] 93 % of control

CCN1CC2c3cc(OC)c(OC)cc3CC(c3ccccc3)C2C1 (stereo not drawn)
inactive: dose: 12.5 mg/kg/injection, schedule: Q01DX009 (ip), vehicle: saline with Tween-80 98 % of control | [1] 95 % of control

CC(=O)OC1C(OC(C)=O)C2C(C)(C)CCCC2(C)C2Cc3occc3C(C)C12 (stereo not drawn)
inactive: [19] 120 % of control | [20] 117 % of control | [21] 103 % of control

CCCCCCCCCCCCCCCCCC[As](=O)(O)CCCCCCCCCCCCCCCCCC
inactive: dose: 50.0 mg/kg/injection, schedule: Q01DX001 (ip), vehicle: saline 97 % of control | [22] 101 % of control | [23] 91 % of control | [24] 101 % of control

NC(c1ccccc1)C(O)c1ccccc1 (stereo not drawn)
inactive: dose: 37.5 mg/kg/injection, schedule: Q04DX003 (ip), vehicle: saline 98 % of control | dose: 75.0 mg/kg/injection, schedule: Q04DX003 (ip), vehicle: saline 92 % of control | dose: 150.0 mg/kg/injection, schedule: Q04DX003 (ip), vehicle: saline 101 % of control

CC12CCC(C)(O)C(CC3=C1CCc1ccccc13)C2=O (stereo not drawn)
inactive: [19] 107 % of control | [20] 104 % of control | [21] 106 % of control

O=C(CI)Nc1ccc2oc(=O)c(C(=O)O)cc2c1
inactive: dose: 20.0 mg/kg/injection, schedule: Q01DX001 (ip), vehicle: Klucel (hydroxypropylcellulose) (HPC) 100 % of control | dose: 40.0 mg/kg/injection, schedule: Q01DX001 (ip), vehicle: Klucel (hydroxypropylcellulose) (HPC) 108 % of control | dose: 80.0 mg/kg/injection, schedule: Q01DX001 (ip), vehicle: Klucel (hydroxypropylcellulose) (HPC) 107 % of control | [12] 97 % of control

O=C(O)c1ccccc1N=Cc1ccccc1Cl
inactive: dose: 100.0 mg/kg/injection, schedule: Q04DX002 (ip), vehicle: saline with Tween-80 101 % of control | dose: 200.0 mg/kg/injection, schedule: Q04DX002 (ip), vehicle: saline with Tween-80 108 % of control | dose: 400.0 mg/kg/injection, schedule: Q04DX002 (ip), vehicle: saline with Tween-80 93 % of control

O=S(=O)(Nc1ccccc1)c1ccccc1C(O)(c1ccccc1)c1ccccc1
inactive: [25] 106 % of control | [26] 90 % of control | [27] 93 % of control

O=CNc1ccccc1
inactive: [6] 96 % of control | [16] 98 % of control | [18] 98 % of control

CS(=O)(=O)Oc1c(Cl)cc(Cl)cc1Sc1cc(Cl)cc(Cl)c1OS(C)(=O)=O
inactive: [25] 95 % of control | [26] 104 % of control | [27] 101 % of control

CN(C)C(=O)c1cccc(NC(=O)Oc2ccccc2)c1
inactive: [4] 109 % of control | [6] 102 % of control | [15] 101 % of control | [16] 100 % of control | [17] 101 % of control | [18] 102 % of control

CCOC(=O)/C=C\c1c(OC)nc2ccccn2c1=O (tested in a mixture with another compound)
inactive: [3] 101 % of control | [5] 94 % of control | [7] 100 % of control | [8] 92 % of control | [9] 101 % of control | [10] 95 % of control

NC(=O)Oc1ccccc1
inactive: [22] 98 % of control | [11] 102 % of control | [19] 95 % of control | [23] 98 % of control | dose: 200.0 mg/kg/injection, schedule: Q01DX009 (ip), vehicle: saline 111 % of control | [20] 98 % of control | [24] 96 % of control | dose: 400.0 mg/kg/injection, schedule: Q01DX009 (ip), vehicle: saline 120 % of control | [21] 103 % of control

COc1ccc(OC(=O)Nc2cccc(Cl)c2)cc1
inactive: [3] 94 % of control | [7] 100 % of control | [9] 100 % of control

O=C(O)c1cccc2c1C(=O)c1ccccc1-2
inactive: [12] 93 % of control | [13] 106 % of control | [14] 101 % of control

Cc1ccc2nc(-c3ccccc3N)[nH]c2c1
inactive: [4] 97 % of control | [15] 92 % of control | [17] 92 % of control

O=S(=O)(NC1CCCC2C=CC=CC21)c1ccccc1 (stereo not drawn)
inactive: [4] 96 % of control | [6] 93 % of control | [15] 102 % of control | [16] 92 % of control | [17] 88 % of control | [18] 95 % of control

O/N=C/c1cccc(/C=N/O)c1
inactive: [2] 94 % of control | dose: 50.0 mg/kg/injection, schedule: Q04DX003 (ip), vehicle: saline with Tween-80 95 % of control | [4] 98 % of control | [6] 97 % of control | [15] 102 % of control | [16] 100 % of control | [17] 95 % of control | [18] 93 % of control

C=CCOc1ccc(OCC=C)nn1
inactive: [5] 104 % of control | [8] 97 % of control | [10] 101 % of control
